Assay results taken from ChEMBL document CHEMBL1122772, “Bis(3,5-diisopropylsalicylato)copper(II), a potent radioprotectant with superoxide dismutase mimetic activity” (J Med Chem, 1984).

Legend:
Assay type in all cases: functional, organism-based
Mus musculus [1] = species: Mus musculus; assay: Rate of diffusion-controlled disproportionation of superoxide
Mus musculus [2] = species: Mus musculus; assay: Percent reactivity in disproportionating diffusion controlled disproportionation of superoxide
Mus musculus [3] = species: Mus musculus; assay: Concentration required for 50% inhibition of superoxide reduction of nitroblue tetrazolium.

Row | Substance | Rate (Mus musculus [1]) [M⁻¹ s⁻¹] | Reactivity (Mus musculus [2]) [%] | Concentration (Mus musculus [3]) [µM]
1 | bis(2-Hydroxy-3,5-diisopropyl-benzoic acid)copper(II)(bis(3,5-diisopropylsalicylato)copper(II)) | 2e+09 | 0.7 | 2.9
2 | bis(2-Hydroxy-benzoic acid)copper(II) | 1.6e+09 | 0.65 | 4.6
